{
  "source": "patent US20110044991A1",
  "about": "“METHODS AND COMPOSITIONS FOR TREATING LYMPHOMA AND MYELOMA” (IRM LLC, priority 2006, published 2011)",
  "key": {"Eμ-Myc lymphoma cells": {"test_system": "Eμ-Myc lymphoma cells", "assay": "Luciferase assay and light microscopy of luciferased lymphoma cells on stromal layer", "type": "cell-based, mouse", "experimental": "For Shh pathway inhibition on stroma, 6200 stroma cells were seeded per 96-well. After 24 hours 20,000 luciferased lymphoma cells were seeded on the stroma cells and 2 hours later compound or DMSO was added. Luciferase assay was performed with Bright-glow reagent as described. To generate cells overexpressing Hh pathway members, lymphoma cells were infected with Smo, Smo 535, Smo 562, Gli1 and Fused-pMSCV IRES GFP constructs and then sorted for GFP positive cells.\nIn order to investigate whether the Hh signalling pathway does indeed contribute to the survival and proliferation of lymphoma cells growing on an intact stromal layer, lymphoma cells were luciferased using a retrovirus expressing a puromycin/Luc fusion cassette. 2×10E4 lymphoma cells constitutively expressing luciferase were added to each 96-well containing a stromal layer (not expressing luciferase) isolated from Cdkn2a^−/− mice. A total of 34 individual Eμ-Myc-lymphomas and 8 Cdkn2a-lymphomas were tested. A luciferase assay was performed as a readout for cell viability and proliferation and results were also documented by light microscopy."}, "[1]": {"test_system": "lymphoma cells (mixed, B-cell lymphoma, plasmacytoma, plasmoblastoma)", "assay": "Cytokine stimulation of lymphoma cells off stroma, Alamar Blue assay", "type": "cell-based, mouse", "details": "2 days after stroma removal; cytokines 0-50 ng/ml; IL-6: plasmacytomas and mixed, IL-7: B-cell and mixed lymphomas, not plasmoblastomas", "experimental": "Luminescence was measured after 0 h, 24 h and 48 h after seeding of 2×10E4 luciferased lymphoma cells on the stroma cells; and F: RT-PCR analysis of transcripts from Hh pathway members and targets in spleen lymphocytes and different lymphoma cell lines.\nCell culture experiments: Lymphoma cells were infected with a retrovirus containing a pMSCV IRES puro-luc sequence and selected for 7 days with puromycin on puromycin-resistant Cdkn2a−/− stroma. […] Both were dissolved as x 1,000 stocks in DMSO. SCF was obtained from RDI, and all other cytokines were obtained from R&D systems. 5E1 anti-ShhN monoclonal antibody was obtained from the developmental hybridoma bank and was used at a concentration of 10 μg/ml. For cytokine stimulation and Shh inhibition in supernatant lymphoma cells were seeded into 96-well plates at a density of 20,000 cells per well and mitochondrial activity of viable cells was measured with an Alamar Blue Assay as described."}},
  "data": [
    {"molecule": "Cc1nn(-c2ccccc2)c(C)c1/C=N/N1CCN(Cc2ccccc2)CC1", "note": "[SANT-1]", "values": [
      {"measurement": "luciferase activity (viable lymphoma cells)", "setting": "Eμ-Myc lymphoma cells; Myc-Ly6, 48 hours, 0, 0.5, 1, 5 and 10 μM", "value": "reduced in a dose dependant manner"},
      {"measurement": "IC50", "setting": "Eμ-Myc lymphoma cells; most responsive lymphomas, 48 h on stromal layer, read-out: IC50 (concentration needed for 50% of maximal inhibition)", "value": "1 to 3", "unit": "µM"}
    ]},
    {"molecule": "GM-CSF: cytokine / growth factor", "values": [
      {"measurement": "number of viable lymphoma cells / survival after cytokine stimulation", "setting": "[1]", "value": "no effect on lymphocyte growth"}
    ]},
    {"molecule": "IL-6: cytokine / growth factor", "values": [
      {"measurement": "number of viable lymphoma cells / survival after cytokine stimulation", "setting": "[1]", "value": "enhance survival"}
    ]},
    {"molecule": "SCF: cytokine / growth factor, obtained from RDI", "values": [
      {"measurement": "number of viable lymphoma cells / survival after cytokine stimulation", "setting": "[1]", "value": "no effect on lymphocyte growth"}
    ]},
    {"molecule": "IL-7: cytokine / growth factor (protein, UniProt P13232 26-177, looked up) Interleukin-7: DCDIEGKDGKQYESVLMVSIDQLLDSMKEIGSNCLNNEFNFFKRHICDANKEGMFLFRAARKLRQFLKMNSTGDFDLHLLKVSEGTTILLNCTGQVKGRKPAALGEAQPTKSLEENKSLKEQKKLNDLCFLKRLLQEIKTCWNKILMGTKEH", "values": [
      {"measurement": "number of viable lymphoma cells / survival after cytokine stimulation", "setting": "[1]", "value": "enhance survival"}
    ]},
    {"molecule": "IL-11: cytokine / growth factor (protein, UniProt P20809 22-199, looked up) Interleukin-11: PGPPPGPPRVSPDPRAELDSTVLLTRSLLADTRQLAAQLRDKFPADGDHNLDSLPTLAMSAGALGALQLPGVLTRLRADLLSYLRHVQWLRRAGGSSLKTLEPELGTLQARLDRLLRRLQLLMSRLALPQPPPDPPAPPLAPPSSAWGGIRAAHAILGGLHLTLDWAVRGLLLLKTRL", "values": [
      {"measurement": "number of viable lymphoma cells / survival after cytokine stimulation", "setting": "[1]", "value": "no effect on lymphocyte growth"}
    ]},
    {"molecule": "Wnt3a: growth factor (protein, UniProt P56704 19-352, looked up) Protein Wnt-3a: SYPIWWSLAVGPQYSSLGSQPILCASIPGLVPKQLRFCRNYVEIMPSVAEGIKIGIQECQHQFRGRRWNCTTVHDSLAIFGPVLDKATRESAFVHAIASAGVAFAVTRSCAEGTAAICGCSSRHQGSPGKGWKWGGCSEDIEFGGMVSREFADARENRPDARSAMNRHNNEAGRQAIASHMHLKCKCHGLSGSCEVKTCWWSQPDFRAIGDFLKDKYDSASEMVVEKHRESRGWVETLRPRYTYFKVPTERDLVYYEASPNFCEPNPETGSFGTRDRTCNVSSHGIDGCDLLCCGRGHNARAERRREKCRCVFHWCCYVSCQECTRVYDVHTCK", "values": [
      {"measurement": "number of viable lymphoma cells / survival after cytokine stimulation", "setting": "[1]", "value": "no effect on lymphocyte growth"}
    ]}
  ]
}
